Laboratory results: patent publication US20050175696A1, “Drug granule coatings that impart smear resistance during mechanical compression” (priority 2003, published 2005)
≈ marks a conversion by molar mass, not a printed value.

Assay: Equilibrium solubility of topiramate in de-ionized water and in aqueous surfactant solutions
Format: physicochemical
Procedure: The resulting solution saturated with the pharmaceutical agent is then filtered, typically under pressure through a 0.8-micron Millipore filter, and the concentration of the pharmaceutical agent in the solution is measured by any appropriate analytical method including gravimetric, ultraviolet spectrophometry, chromatography, and the like. The solubility of the pharmaceutical agent is measured at equilibrium.
A drug composition of the present invention was prepared as follows. Aqueous solutions of five surfactants were prepared. The selected surfactants were four grades of ethylene oxide/propylene oxide/ethylene oxide (LUTROL grades F127, F87, F 108, and F68) and PEG-40 stearate (MYRJ 52). Solutions were made at concentrations of 1, 5, and 15 weight percent. The aqueous surfactant blends solutions were chilled as necessary to promote complete dissolution of the surfactant prior to drug solubility studies.
The aqueous surfactant solutions were equilibrated to constant temperature in a 37° C. water bath. Then, neat topiramate drug was added slowly with stirring in about 10 mg increments to the surfactant solutions until no more drug dissolved. […] The resulting saturated solutions of drug were filtered through 0.8 micron filters and analyzed for drug concentration by refractive index chromatography. […]

- solubility (37 °C, thermodynamic from solid, de-ionized water, no temperature printed at the place, read-out: Solubility of neat topiramate in de-ionized water): ~12 mg/mL (≈ 35.4 mM)
- Topiramate solubility in water in the presence of surfactant, compared to control without surfactant (LUTROL F127, F87, F108, F68 and MYRJ 52 solutions at 1, 5 and 15 weight percent, 37° C.): increased by each surfactant
SMILES: CC1(C)O[C@@H]2[C@@H](CO[C@@]3(COS(N)(=O)=O)OC(C)(C)O[C@@H]23)O1 [topiramate]
